Assays:
TrmDEC = biological target: T1, TrmDEC (Escherichia coli, UniProt P0A873); experiment: ITC; assay type: binding
T1 construct: gene trmD; full-length, N-terminal His tag (pET28b), expressed in E. coli BL21(DE3), tag kept
T1 sequence (P0A873 2-255): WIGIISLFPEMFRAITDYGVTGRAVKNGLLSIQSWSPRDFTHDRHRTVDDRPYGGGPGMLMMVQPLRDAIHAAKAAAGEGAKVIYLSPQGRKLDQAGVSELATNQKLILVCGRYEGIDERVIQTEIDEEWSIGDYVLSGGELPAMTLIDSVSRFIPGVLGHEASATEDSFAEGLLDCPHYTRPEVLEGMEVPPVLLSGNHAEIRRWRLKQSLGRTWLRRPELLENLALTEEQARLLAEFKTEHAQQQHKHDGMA

TrmDSA = biological target: T2, TrmDSA (Staphylococcus aureus, UniProt Q2FHJ8); experiment: ITC; assay type: binding
T2 construct: gene trmD; full-length, N-terminal His tag (pET28b), expressed in E. coli BL21(DE3), tag kept
T2 sequence (Q2FHJ8 2-245): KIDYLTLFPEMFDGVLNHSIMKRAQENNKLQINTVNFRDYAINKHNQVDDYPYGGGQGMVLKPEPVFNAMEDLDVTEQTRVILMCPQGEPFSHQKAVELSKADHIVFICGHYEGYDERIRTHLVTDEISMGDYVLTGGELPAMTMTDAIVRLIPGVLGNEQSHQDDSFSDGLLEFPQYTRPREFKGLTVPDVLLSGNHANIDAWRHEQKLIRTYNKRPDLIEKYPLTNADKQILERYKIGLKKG

Compound: C[S+](CC[C@H](N)C(=O)O)C[C@H]1O[C@@H](n2cnc3c(N)ncnc32)[C@H](O)[C@@H]1O (some centres unmarked) [AdoMet]
- Kd (TrmDEC): 21.5 µM
- Kd (TrmDSA): 121 µM

Reference: paper PMC5217690 (The Journal of Biological Chemistry, 2016)
